Experiments:
Settings in all cases: banded MIC grade
Aspergillus fumigatus = assay: Minimum inhibitory concentration, YAG medium; format: cell-based
Summary of the method: (§1)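 MIC, in mg/L, defined as the lowest drug level inhibiting growth by >70% relative to drug-free wells, judged by OD 485 nm after 24 hrs at 35° C. Spores (1-2×10^4 cfu/mL) were grown in YAG medium against doubling dilutions, usually 50-0.05 mg/L, repeated at 0.5-0.0005 mg/L where needed.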

A. fumigatus 210 [1] = assay: Minimum inhibitory concentration, YAG medium; format: cell-based, Aspergillus fumigatus
Summary of the method: as §1

A. terreus 49 [2] = assay: Minimum inhibitory concentration, YAG medium; format: cell-based, Aspergillus terreus
Summary of the method: (§2)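 Compound from a 5 mg/mL DMSO stock was further diluted in sterile water, then serially doubled in water and plated with Aspergillus spp. spores. After 24 hrs at 35° C, growth was monitored by optical density at 485 nm; MICs are given in mg/L.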

Aspergillus flavus = assay: Minimum inhibitory concentration, YAG medium; format: cell-based
Summary of the method: as §2

Aspergillus niger = assay: Minimum inhibitory concentration, YAG medium; format: cell-based
Summary of the method: as §2

Aspergillus terreus = assay: Minimum inhibitory concentration, YAG medium; format: cell-based
Summary of the method: as §2

A. flavus = assay: Minimum inhibitory concentration, RPMI medium; format: cell-based
Summary of the method: (§3)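 Compound stock was made at 5 mg/mL in DMSO, diluted in sterile water and serially doubled in water, then tested in RPMI 1640 medium. Plates were incubated 24-48 hrs at 35° C, and growth was scored as optical density at 485 nm.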

A. niger = assay: Minimum inhibitory concentration, RPMI medium; format: cell-based
Summary of the method: as §3

A. terreus 49 [3] = assay: Minimum inhibitory concentration, RPMI medium; format: cell-based
Summary of the method: as §3

A. terreus = assay: Minimum inhibitory concentration, RPMI medium; format: cell-based
Summary of the method: as §3

C. albicans = assay: Minimum inhibitory concentration, RPMI medium; format: cell-based
Summary of the method: as §3

C. glabrata = assay: Minimum inhibitory concentration, RPMI medium; format: cell-based
Summary of the method: as §3

C. krusei = assay: Minimum inhibitory concentration, RPMI medium; format: cell-based
Summary of the method: as §3

C. parapsilosis = assay: Minimum inhibitory concentration, RPMI medium; format: cell-based
Summary of the method: as §3

C. tropicalis = assay: Minimum inhibitory concentration, RPMI medium; format: cell-based
Summary of the method: as §3

A. fumigatus 210 [4] = assay: Minimum inhibitory concentration, RPMI medium; format: cell-based
Summary of the method: (§4)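 Compound doubling dilutions were prepared from 5 mg/mL DMSO stock; fungus was diluted in RPMI 1640 with 2% glucose and 0.135 M MOPS (pH 7.0), giving inocula of 1-2×10^4 cfu/mL and drug range 50-0.05 mg/L. Plates ran 24-48 hrs at 35° C; MIC is the lowest concentration giving >80% growth inhibition by OD485 versus drug-free control.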

A. fumigatus = assay: Minimum inhibitory concentration, RPMI medium; format: cell-based
Summary of the method: as §4

Row | SMILES | MIC grade, A. FUMIGATUS, YAG media (Aspergillus fumigatus) | MIC grade, A. FUMIGATUS 210, YAG media (A. fumigatus 210 [1]) | MIC grade, A. TERREUS 49, YAG media (A. terreus 49 [2]) | MIC grade, A. FLAVUS, YAG media (Aspergillus flavus) | MIC grade, A. NIGER, YAG media (Aspergillus niger) | MIC grade, A. TERREUS, YAG media (Aspergillus terreus) | MIC grade, A. FLAVUS, RPMI media (A. flavus) | MIC grade, A. NIGER, RPMI media (A. niger) | MIC grade, A. TERREUS 49, RPMI media (A. terreus 49 [3]) | MIC grade, A. TERREUS, RPMI media (A. terreus) | MIC grade, C. ALBICANS, RPMI media (C. albicans) | MIC grade, C. GLABRATA, RPMI media (C. glabrata) | MIC grade, C. KRUSEI, RPMI media (C. krusei) | MIC grade, C. PARAPSILOSIS, RPMI media (C. parapsilosis) | MIC grade, C. TROPICALIS, RPMI media (C. tropicalis) | MIC grade, A. FUMIGATUS 210, RPMI media (A. fumigatus 210 [4]) | MIC grade, A. FUMIGATUS, RPMI media (A. fumigatus)
1 | CCc1ccc(OCCCCC2=NN=C(N)SC2)cc1 | 3 (3: 0.2-1 mg/L) | 3 (3: 0.2-1 mg/L) | 4 (4: <0.2 mg/L) | 4 (4: <0.2 mg/L) | 3 (3: 0.2-1 mg/L) | 4 (4: <0.2 mg/L) | 2 (2: 5-20 mg/L) | 2 (2: 5-20 mg/L) | 2 (2: 5-20 mg/L) | 3 (3: 1-5 mg/L) | 4 (4: <1 mg/L) | 2 (2: 5-20 mg/L) | 4 (4: <1 mg/L) | 4 (4: <1 mg/L) | 4 (4: <1 mg/L) | 2 (2: 5-20 mg/L) | 2 (2: 5-20 mg/L)
2 | NC1=NN=C(CCCCOCc2cccc(Cl)c2)CS1 | 4 (4: <0.2 mg/L) | 4 (4: <0.2 mg/L) | 4 (4: <0.2 mg/L) | 4 (4: <0.2 mg/L) | 4 (4: <0.2 mg/L) | 4 (4: <0.2 mg/L) | 4 (4: <1 mg/L) | 3 (3: 1-5 mg/L) | 3 (3: 1-5 mg/L) | 3 (3: 1-5 mg/L) | 4 (4: <1 mg/L) | 3 (3: 1-5 mg/L) | 4 (4: <1 mg/L) | 4 (4: <1 mg/L) | 4 (4: <1 mg/L) | 2 (2: 5-20 mg/L) | 4 (4: <1 mg/L)
3 | NC1=NN=C(CCCCOCc2ccc(C(F)(F)F)cc2)CS1 | 4 (4: <0.2 mg/L) | 4 (4: <0.2 mg/L) | 4 (4: <0.2 mg/L) | 4 (4: <0.2 mg/L) | 4 (4: <0.2 mg/L) | 4 (4: <0.2 mg/L) | 3 (3: 1-5 mg/L) | 3 (3: 1-5 mg/L) | 2 (2: 5-20 mg/L) | 3 (3: 1-5 mg/L) | 4 (4: <1 mg/L) | 2 (2: 5-20 mg/L) | 4 (4: <1 mg/L) | 4 (4: <1 mg/L) | 4 (4: <1 mg/L) | 2 (2: 5-20 mg/L) | 2 (2: 5-20 mg/L)
4 | CCCCc1ccc(COCCCCC2=NN=C(N)SC2)cc1 | 1 (1: ≥5 mg/L) | 1 (1: ≥5 mg/L) | 2 (2: 1-5 mg/L) | 3 (3: 0.2-1 mg/L) | 3 (3: 0.2-1 mg/L) | 2 (2: 1-5 mg/L) | 2 (2: 5-20 mg/L) | 2 (2: 5-20 mg/L) | 1 (1: ≥20 mg/L) | 1 (1: ≥20 mg/L) | 2 (2: 5-20 mg/L) | 2 (2: 5-20 mg/L) | 3 (3: 1-5 mg/L) | 3 (3: 1-5 mg/L) | 2 (2: 5-20 mg/L) | 1 (1: ≥20 mg/L) | 1 (1: ≥20 mg/L)
5 | NC1=NN=C(CCCCOCc2ccc(Cl)cc2)CS1 | 4 (4: <0.2 mg/L) | 4 (4: <0.2 mg/L) | 4 (4: <0.2 mg/L) | 4 (4: <0.2 mg/L) | 4 (4: <0.2 mg/L) | 4 (4: <0.2 mg/L) | 4 (4: <1 mg/L) | 3 (3: 1-5 mg/L) | 3 (3: 1-5 mg/L) | 3 (3: 1-5 mg/L) | 4 (4: <1 mg/L) | 3 (3: 1-5 mg/L) | 4 (4: <1 mg/L) | 4 (4: <1 mg/L) | 3 (3: 1-5 mg/L) | 2 (2: 5-20 mg/L) | 3 (3: 1-5 mg/L)
6 | Cc1cccc(COCCCCC2=NN=C(N)SC2)c1 | 3 (3: 0.2-1 mg/L) | 3 (3: 0.2-1 mg/L) | 3 (3: 0.2-1 mg/L) | 3 (3: 0.2-1 mg/L) | 3 (3: 0.2-1 mg/L) | 3 (3: 0.2-1 mg/L) | 3 (3: 1-5 mg/L) | 2 (2: 5-20 mg/L) | 2 (2: 5-20 mg/L) | 2 (2: 5-20 mg/L) | 3 (3: 1-5 mg/L) | 2 (2: 5-20 mg/L) | 3 (3: 1-5 mg/L) | 3 (3: 1-5 mg/L) | 3 (3: 1-5 mg/L) | 2 (2: 5-20 mg/L) | 3 (3: 1-5 mg/L)
7 | NC1=NN=C(CCCCCOc2ccccn2)CS1 | 4 (4: <0.2 mg/L) | 4 (4: <0.2 mg/L) | 4 (4: <0.2 mg/L) | 4 (4: <0.2 mg/L) | 4 (4: <0.2 mg/L) | 4 (4: <0.2 mg/L) | 4 (4: <1 mg/L) | 4 (4: <1 mg/L) | 4 (4: <1 mg/L) | 4 (4: <1 mg/L) | 4 (4: <1 mg/L) | 3 (3: 1-5 mg/L) | 4 (4: <1 mg/L) | 4 (4: <1 mg/L) | 4 (4: <1 mg/L) | 3 (3: 1-5 mg/L) | 4 (4: <1 mg/L)

— US20180201592A1, “2-AMINO-1,3,4-THIADIAZINE AND 2-AMINO-1,3,4-OXADIAZINE BASED ANTIFUNGAL AGENTS” (F2G Limited, priority 2015, published 2018)
